Source: US20130209515A1, “ANTI-INFECTIVE AND IMMUNOMODULATORY COMPOUNDS” (priority 2005, published 2013)
In brackets after ≈: the same amount, converted by molar mass. Entries after “also recorded” stand apart in the source; their conditions may differ.

Legend:
P. aeruginosa = P. aeruginosa growth kinetics (spectrophotometric analysis at 600 nm); format: cell-based, Pseudomonas aeruginosa; conditions: FIG. 23B
From the text: P. aeruginosa strains include wild-type (PA14, see Rahme et al., Science 268:1899-1902, 1995); a PA14 mvfR mutant (Cao et al., Proc. Natl. Acad. Sci. USA 98:14613-14618, 2001); a pqsE deletion mutant, generated via pEX18Ap allelic replacement by using sucrose selection (Hoang et al., Gene 212:77-86, 1998), resulting in a 570-bp nonpolar deletion covering 65% of the sequence (Déziel et al. PNAS); and the pqsA (U479) TnphoA mutant obtained from the PA14 Transposon Insertion Mutant Database. Bacteria were grown in LB broth or on 1.5% Bacto-agar (Difco) LB plates. Freshly plated cells served as inoculum.
P. aeruginosa was grown in the presence of 2 mM of 2′-aminoacetophenone (2AA), 3′-aminoacetophenone (3AA), 4′-aminoacetophenone (4AA), or 2′-nitroacetophenone (2NA), or in the absence of any of these compounds (control). Bacterial growth was followed over 26 hours by spectrophotometric analysis at 600 nm.
Bacterial growth was also followed over 35 hours by spectrophotometric analysis at 600 nm.

[1] = test system: 4-hydroxy-2-alkylquinoline (HAQ) production; format: cell-based, Pseudomonas aeruginosa
P. aeruginosa PA14 [2] = assay: Mouse burn and infection (BI) model, survival; format: in vivo, mice
Procedure: Burn wound infection in mice can be established by subcutaneous or topical administration of the bacteria to the sites of the burn. […] Six-week old CD-1 male mice were used.
To induce infection, the mice were placed under general anesthesia via intraperitonial injection of 40 mg/kg Pentobarbital, the ventral surface was shaved, and a central skin fold elevated was simultaneously compressed from both sides for 5 seconds using two 2×2 cm metal blocks preheated to 95-100° C., to produce a non-lethal 5-8% full thickness burn with negligible focal necrosis of the underlying muscle or damage to underlying visceral organs. IP saline was administered for fluid resuscitation for ≧5% total body surface burns: avoiding vital structures, saline was injected into the left lower quadrant of the abdominal area of the anesthetized animal post-burn. This burn procedure was followed by mid-eschar inoculation of 100 μL of bacterial suspension containing ˜5×10^5 CFU. The animals were returned to their cages and provided mouse chow and water ad libitum. Animals typically recover from the anesthesia within 20 minutes post-administration. Criteria used to evaluate anesthesia recovery are state of alertness, mobility, and reaction to surrounding stimuli. Mice were monitored twice a day for symptoms and deaths, with increased monitoring every 6-8 hours during the period of greatest potential for infection and clinical disease.
The mouse full-thickness skin thermal injury infection model was used to test if 2AA restricts P, aeruginosa virulence. This model is predictable and reproducible; clinically relevant; and can lead to MODS and mortality. Briefly, a ˜15% total burn surface area (TBSA) thermal scalding injury is produced on the abdominal skin, leaving the underlying muscle intact, and the inoculum is delivered into the scald eschar. […]

[3] = Toxicity of IV 6-FABA in burned mice; format: in vivo
Procedure: Initial experiments were aimed at defining an appropriate mouse administration protocol for 6-FABA, with regard to concentration, time of administration following infection, and inhibition of virulence. […] Accordingly, burn and PA14 infected (BI) mice were subsequently administered a single injection of 20 mM 6-FABA at 6 or 12 hr post BI; and double injections at 6 and 24 hr BI.

P. aeruginosa PA14 [4] = assay: PA14 systemic spread in BI mice (cfu in muscle and blood); format: in vivo
Procedure: Furthermore, 6-FABA, 6CABA, and 4CABA efficacy in limiting PA14 systemic spread was assessed by comparing burn mice infected with PA14 and then treated with the compounds at 6 hr BI with control untreated BI mice. For each experimental set of n=18, 6 mice were sacrificed at 24 hr, and bacteria numbers were determined in muscle tissue underlaying or adjacent to the […] site and in blood. The inoculation procedure used in the thermal injury model greatly limits the initial delivery of bacteria to blood and muscle, so bacteria in these tissues reflect post-infection systemic spread.
In an experiment to determine the whether 6-fluoro-2-aminobenzoic acid (6FABA) affects the systemic spread of P. aeruginosa cells in a mouse burn/infection model, the results of which are shown in FIGS. 28A and 28B, 15 mice were treated with 100 μL of a 20 mM solution of 6-FABA 6 hrs or 12 hours post-burn and infection, and the PA14 cfu/mg of tissue (i.e., in blood and in muscle adjacent to the burn and infection) was determined at 24 hours and 36 hours post-burn.

PqsA = molecular target: T1, PqsA (Pseudomonas aeruginosa, UniProt Q9I4X3); assay: Anthranilic acid accumulation and AA competition in PA14 cultures; format: cell-based
T1 construct: endogenous in cells; host or cells: P. aeruginosa PA14 cultures
T1 sequence (Q9I4X3 whole entry): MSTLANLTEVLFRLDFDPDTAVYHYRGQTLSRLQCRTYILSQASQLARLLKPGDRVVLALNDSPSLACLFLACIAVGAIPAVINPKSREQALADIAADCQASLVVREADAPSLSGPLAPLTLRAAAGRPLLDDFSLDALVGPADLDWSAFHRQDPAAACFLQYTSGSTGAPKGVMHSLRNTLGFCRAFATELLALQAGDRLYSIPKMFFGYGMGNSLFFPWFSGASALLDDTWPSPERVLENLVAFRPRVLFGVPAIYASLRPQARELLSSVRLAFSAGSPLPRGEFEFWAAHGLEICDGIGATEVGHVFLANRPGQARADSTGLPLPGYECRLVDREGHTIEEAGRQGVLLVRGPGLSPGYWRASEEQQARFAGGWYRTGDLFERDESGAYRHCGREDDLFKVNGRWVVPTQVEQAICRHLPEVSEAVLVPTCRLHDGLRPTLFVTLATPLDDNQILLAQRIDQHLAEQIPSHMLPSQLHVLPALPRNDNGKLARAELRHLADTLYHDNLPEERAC
From the text: In P. aeruginosa anthranilic acid is also produced by the enzymatic systems PhnAB or TrpEG. […] This accumulation could be due to inhibition of PqsA or of any enzyme downstream in the HAQ biosynthesis. […] This reversal could only be explained by a competitive inhibition of an enzyme acting on AA. Because pqsA is the only enzyme of the pqsA-E operon to present similarities with enzymes involved in the activation of aromatic acid group, like the one found in anthranilic acid, we conclude that these inhibitors act on PqsA in a competitive manner with its substrate AA.

pyocyanin production = assay: Pyocyanin production; format: cell-based, Pseudomonas aeruginosa
physchem = conditions: saline or isotonic

## Nc1cccc(F)c1C(=O)O [6-FABA, 6-fluoro-2-aminobenzoic acid]
P. aeruginosa
  bacterial growth (PA14): without affecting bacterial growth
[1]
  HAQ production / HAQs synthesis: inhibited HAQ production; also recorded: completely halted
  inhibition of 4-hydroxy-2-alkylquinoline (HAQ) production: potent inhibitors; also recorded: potently inhibit
  production of the principal members of the three main HAQ families (HHQ, HQNO, PQS): dramatically decreased; also recorded: strongly inhibited
P. aeruginosa PA14 [2]; single IV injection 20 mM at 6 hr BI (FIG. 26)
  time course of mortality: delayed mortality
P. aeruginosa PA14 [2]; single IV injection 20 mM at 6 hr BI, control 10% (FIG. 26)
  survival: 40%
P. aeruginosa PA14 [2]; single IV injection 20 mM at 12 hr BI (FIG. 26)
  survival: up to 60%
P. aeruginosa PA14 [2]; single IV injection at 6 hrs (100 μl 20 mM), control 10% (FIG. 24)
  final mice survival rate at 7 days post burn and infection: ~35%
[3]; second IV injection of 20 mM at 12 or 18 hr
  toxicity (deaths): a significant number of mice die
[3]; second IV injection of 20 mM at 24 hr
  mortality: 10%
[3]; single IV injection 100 μl 20 mM, 6 hrs post-burn
  toxicity: non-toxic
P. aeruginosa PA14 [4]; 100 μL of 20 mM 6-FABA post-burn and infection (FIG. 28A)
  systemic dissemination of P. aeruginosa (cfu/mg in muscle adjacent to burn): limits significantly the systemic dissemination
P. aeruginosa PA14 [4]; 100 μL of 20 mM 6-FABA, blood at 24 hrs (FIG. 28B)
  bacteria in blood: no bacteria are detected
PqsA; PA14 culture with inhibitor vs control (FIG. 31)
  accumulation of anthranilic acid: transient accumulation
PqsA; culture containing 1.5 mM inhibitor (FIG. 32)
  effect of increasing concentrations of AA on inhibition of HAQ production: reversed the inhibition
Pyocyanin production
  pyocyanin production: without abrogating pyocyanin production
physchem
  solubility: 20 mM (≈ 3100 µg/mL)
